From patent publication US20170045520A1, “METHOD FOR PREDICTING RESPONSE TO THERAPY FOR CANCER” (National University of Singapore, priority 2014, published 2017)
Read-outs that look alike come from different tables or passages of the source.

System: WBP2 overexpressing cancer cells
Test: Drug sensitivity of cells overexpressing WT ITCH versus C830A or E855K mutant ITCH to Wnt inhibitors
Format: cell-based
Protocol: This was indeed the case for up to 0.0001 μM and 5 μM for FH535 and C59, respectively, but above these doses, the distinction was lost probably as a result of non-specific cytotoxicity (FIGS. 8 and 9). This implies that ITCH inactivating mutations could be used to predict for response to Wnt inhibitors especially in cancers that are dependent on WBP2.

[1] = WT ITCH vs C830A or E855K mutant ITCH overexpression, FIGS. 8 and 9

Compound | dose up to which the difference in sensitivity between WT ITCH and mutant ITCH cells held (above it the distinction was lost, probably non-specific cytotoxicity) [1] | sensitivity of cells to the Wnt inhibitor when WT ITCH is overexpressed (low WBP2) compared to when C830A or E855K mutant is overexpressed (high WBP2) [1] | dose up to which the difference in sensitivity between WT ITCH and mutant ITCH cells held (above it the distinction was lost, probably non-specific cytotoxicity) [µM]
Cc1cc([N+](=O)[O-])ccc1NS(=O)(=O)c1cc(Cl)ccc1Cl [FH535] | up to 0.0001 μM | less sensitive | 
Cc1cc(-c2ccc(CC(=O)Nc3ccc(-c4cccnc4)cc3)cc2)ccn1 [C59] |  | less sensitive | ≤ 5
